# From PubChem BioAssay AID2423 (Broad Institute, 2010)
# Records with an inconclusive call do not appear. Activity calls are given as the source filed them. How the calls were made is not given here.
# Tested on: C. albicans CaCi-8 + fluconazole, Alamar Blue growth, 48 h
# Assay: resistant C. albicans growth inhibition with fluconazole, dose response, CaCi-8 strain, Alamar Blue fluorescence (AID 2423)
row,SMILES,EC50
1,CCc1ccc2c(c1)/C(=C/C(=O)c1cccs1)C(=O)N2,2380 nM
2,O=C(CCC(=O)Nc1ccccc1Cl)NNS(=O)(=O)c1ccc(Cl)cc1,> 16000 nM (inactive)
3,S=c1[nH]nc(-c2ccccc2)n1/N=C/c1cccs1,6130 nM
4,Cc1ccc(/C=C/C(=O)c2ccccc(=O)c2O)c(C)c1,1260 nM
5,c1ccc(Sc2cccc3ccccc23)c(CNC2=NCCN2)c1,9520 nM
6,CCOC(=O)C(CC)/C(C)=N\NC(=O)c1ccccc1O (stereo unspecified),7820 nM
7,CCN1/C(=C/c2ccc3cc(C)ccc3[n+]2CC)Sc2ccc3sccc3c21,< 120 nM
8,O=Cc1cc(N=Nc2ccccc2Cl)ccc1O,6390 nM
9,O=C(CN1C(=O)COc2ccccc21)NCCCN1CCc2ccccc2C1,> 15000 nM (inactive)
10,O=C(Nc1cccc(NC(=O)c2ccccc2Cl)c1)c1ccc([N+](=O)[O-])o1,716 nM
11,CN1CCc2cc3c(c4c2[C@H]1[C@H](O)c1ccccc1-4)OCO3,8200 nM
12,CCCn1c(Nc2nc3ccccc3n2C)nc2ccccc21,1170 nM
13,O=C(NC1CCCCC1)c1cc([N+](=O)[O-])[nH]n1,1120 nM
14,O=C(NNC(=S)NC(=O)c1ccccc1)c1ccc([N+](=O)[O-])cc1,4120 nM
15,O=C(Oc1cc2oc(=O)cc(-c3ccccc3)c2cc1Cl)C1CCCCC1,1200 nM
16,COc1ccc(C(=O)Nc2ccccc2C(=O)Nc2ccccc2C(=O)O)cc1,7540 nM
17,COc1ccc(C(=O)NCCN2CCOCC2)c(OC)c1OC,> 15000 nM (inactive)
18,NCC(c1ccc(Cl)cc1Cl)c1c[nH]c2ccccc12 (stereo unspecified),> 16000 nM (inactive)
19,COc1cccc(/C=N/NC(=O)c2cc(-c3cccn3C)n[nH]2)c1O,5640 nM
20,O=C(NCCNC(=O)C(c1ccccc1)c1ccccc1)c1ccco1,> 15000 nM (inactive)
21,O=C(CCS(=O)(=O)c1ccc(Cl)cc1)Nc1nc(-c2ccncc2)cs1,709 nM
22,Cc1oc2c(F)c(F)c(F)c(F)c2c1S(=O)(=O)Nc1cccc(C(F)(F)F)c1,1490 nM
23,Cc1ccc(S(=O)(=O)N(C)c2ccc(OCC(=O)Nc3nnc(C4CC4)s3)cc2)cc1,708 nM

row,SMILES,EC50
1,O=c1c2ccccc2nc(-c2ccc(Cl)cc2Cl)n1O,1020 nM
2,CC(=O)Nc1ccc(NC(=O)CCCN2C(=O)c3ccccc3C2=O)cc1,> 15000 nM (inactive)
3,Cc1ccc(C)c(-c2nnc(NC(=O)c3ccco3)o2)c1,957 nM
4,CC(=O)NNC(=S)NC(=O)C(c1ccccc1)c1ccccc1,3190 nM
5,Cc1onc(-c2c(Cl)cccc2Cl)c1C(=O)N/N=C(\N)COc1ccc(Cl)cc1,1700 nM
6,O=C(NC(Cc1ccccc1)C(=O)NCc1ccccn1)c1ccco1 (stereo unspecified),> 15000 nM (inactive)
7,Cc1cc(C)c(-c2cc(NC(=O)COC(=O)c3ccc(C#N)cc3)n(-c3ccccc3)n2)cc1C,397 nM
8,CCOC(=O)c1c(NC(=S)NCC2CCCO2)sc(C)c1C (stereo unspecified),< 120 nM
9,CCN1/C(=C/C(C)=C/c2sc3ccccc3[n+]2CC)Sc2ccccc21,< 120 nM
10,CCN(CC)C(=O)Cn1c(=O)n(-c2ccccc2)c(=O)c2c3c(sc21)CCC3,> 16000 nM (inactive)
11,O=C(NNC1=C(C(=O)C(F)(F)F)CCC1)c1ccc(Cl)cc1,1040 nM
12,O=C(Nc1cccc2ccccc12)c1ccc([N+](=O)[O-])o1,726 nM
13,COC(CN(C)C(=O)c1ccc2c(c1)NC(=O)c1ccccc1S2)OC,> 15000 nM (inactive)
14,c1ccc(CSc2nnc(-c3cccs3)n2Cc2ccco2)cc1,4720 nM
15,O=[N+]([O-])c1ccc(C(=Nc2cccc3ccccc23)N2CCOCC2)cc1,1350 nM
16,CON/C=C(\C=Nc1ccc(Cl)cc1Cl)c1ncc(C(F)(F)F)cc1Cl,> 16000 nM (inactive)
17,O=C(NNc1nc2ccc(Cl)cc2s1)c1cc(-c2cccs2)nc2ccccc12,400 nM
18,CCOC(=O)c1ccc(NC(=O)c2ccc(CO)c(C(=O)NC3CCN(C(=O)OCC)CC3)c2)cc1,> 16000 nM (inactive)
19,COc1cc(OC)cc(C(=O)NNC(=O)c2cc3ccccc3cc2O)c1,9180 nM
20,CN(/C(=N/S(=O)(=O)c1cccs1)c1ccccc1)c1ccc(O)cc1,> 15000 nM (inactive)
21,CCc1ccccc1NC(=S)N=Nc1c(O)n(C)c2ccc(S(=O)(=O)N3CCOCC3)cc12,5160 nM
22,COc1ccc(-c2c[n+]3c(n2-c2ccccc2)CCCCC3)cc1,9580 nM
23,COc1ccc(OC)c(/C=C2\SC(=S)N(NS(=O)(=O)c3ccc(C)cc3)C2=O)c1,1130 nM

row,SMILES,EC50
1,CCCNC(=O)c1ccc2c(=O)c(O)c(-c3ccc(OC)cc3)[nH]c2c1,2470 nM
2,COc1ccc(/C=N/OCC(=O)Nc2nc3ccccc3s2)cc1,3050 nM
3,Cc1cc(Nc2ccc(Cl)cc2)nc(NCc2ccccc2)n1,5160 nM
4,O=C(NNC(=S)NC(=O)C12CC3CC(CC(C3)C1)C2)c1ccncc1,4640 nM
5,COc1cccc(C(=O)NNC(=O)c2ccccc2Br)c1,> 15000 nM (inactive)
6,CC(=O)N1CCOCCOCCN(C(C)=O)CCOCCOCC1,> 15000 nM (inactive)
7,COc1ccccc1NC1=C(N2CCCCC2)C(=O)c2ccccc2C1=O,245 nM
8,O=S(=O)(Nc1nc2ccccc2s1)c1ccc(Br)s1,1730 nM
9,COc1ccc(C[C@H]2NC[C@H](O)[C@H]2OC(C)=O)cc1,1480 nM
10,O=S(=O)(c1ccc(Cl)cc1)N1CCN(Cc2ccc(O)c3ncccc23)CC1,2940 nM
11,COc1cccc(C2/C(=C(/O)c3ccc(C)cc3)C(=O)C(=O)N2Cc2ccco2)c1 (stereo unspecified),7030 nM
12,CN(C)c1cc[n+](CC(=O)c2ccc(-c3ccccc3)cc2)cc1,4980 nM
13,COc1ccc(OC)c(Nc2nc(-c3ccc(O)c(O)c3)cs2)c1,10800 nM
14,CN1CCN(C(c2ccc(C(F)(F)F)cc2)c2ccc3cccnc3c2O)CC1 (stereo unspecified),883 nM
15,Cc1ccc(C)c(NC(=S)NNC(=O)c2csc(C(C)C)c2)c1,1210 nM
16,Cc1cc(C)n(-c2nc3ccccc3c(=O)n2OCC#N)n1,456 nM
17,CCOC(=O)c1cnc2ccc(C)cc2c1Nc1ccc(N2CCOCC2)cc1,1100 nM
18,O=C(c1cc2c(s1)-c1ccccc1OC2)N1CCC2(CC1)OCCO2,2000 nM
19,O=C(CSc1cccc[n+]1[O-])CSc1cccc[n+]1[O-],13400 nM
20,Brc1ccc(N/N=C(/N=Nc2nn[nH]n2)c2ccccc2)cc1,5600 nM
21,CCOC(=O)c1c(NC(=O)C2Cc3ccccc3C(=O)O2)sc2c1CCCC2 (stereo unspecified),> 16000 nM (inactive)
22,Cc1ccc2nc(N3C(=O)C(O)=C(C(=O)c4ccco4)C3c3ccc(C)o3)sc2c1 (stereo unspecified),131 nM
23,Nc1nn2cc(-c3ccc(Br)cc3)nc2c2ccccc12,962 nM

row,SMILES,EC50
1,CCOC(=O)c1ccc(-c2ccc(C3Nc4ccccc4C(=O)N3O)o2)cc1 (stereo unspecified),5630 nM
2,O=S(=O)(Cc1ccc(Cl)cc1)N1CCN(Cc2ccccc2)CC1,> 16000 nM (inactive)
3,O=C(Oc1c(CN2CCOCC2)cc(Cl)c2cccnc12)c1ccccc1Br,4120 nM
4,COc1ccc(C2=NN(c3nc4ccccc4s3)C(=O)C2)cc1,5660 nM
5,NC1=NC[C@H](Cc2ccccc2)N1CCCCC1CCCCC1,7380 nM
6,O=C(/C=C/c1ccc([N+](=O)[O-])o1)NNC(=O)c1ccc(F)cc1,1190 nM
7,O=S(=O)(Nc1nc(-c2ccccc2)cs1)c1cc(Cl)ccc1Cl,2790 nM
8,Cc1ccc(SCC(=O)Nc2ccc3c(c2)C(=O)N(C)C3=O)cc1,> 15000 nM (inactive)
9,Cc1ccc(Nc2nc(CSc3nnc(-c4ccncc4)n3-c3ccccc3C)cs2)cc1,> 16000 nM (inactive)
10,CC1CCCCN1S(=O)(=O)c1ccc(NC(=O)c2cccc(-n3cnnn3)c2)cc1 (stereo unspecified),> 15000 nM (inactive)
11,COc1ccc(-n2c(=O)c3c4c(sc3n3c(=S)[nH]nc23)CCCC4)cc1,744 nM
12,Cc1ccccc1C(=O)NNC(=S)NC(=O)c1ccc(Cl)cc1Cl,1390 nM
13,COc1ccc(NS(=O)(=O)c2ccc3ccccc3c2)c2ncccc12,3790 nM
14,COC(=O)C1=NN(C(=O)c2ccc(Cl)cc2)C(O)(c2ccccc2)C1 (stereo unspecified),> 16000 nM (inactive)
15,Cc1ccc(O)c(C2=NNC(c3ccc(Cl)cc3)C2)c1 (stereo unspecified),395 nM
16,[O-][N+]1=c2ccc(Nc3ccccc3)cc2=NC12CCCCC2,750 nM
17,CC(C)c1noc2ncc(C(=O)c3cc(Cl)cc(Cl)c3O)cc12,2910 nM
18,CC(C)CCN1C(=O)c2ccc(C(=O)Nc3ccc(Br)cc3C(=O)O)cc2C1=O,1270 nM
19,O=C(Nc1cccc(-c2cn3ccccc3n2)c1)c1cccc(Cl)c1,715 nM
20,Cc1ccc(NCc2ccc(O)c3ncccc23)cc1C,13400 nM
21,COc1ccc2c(c1)c(/C=C/c1cc[n+](C)cc1)cn2C,5950 nM
22,Fc1cccc(-n2cc(-c3ccccc3)c3c(=S)nc[nH]c32)c1,1800 nM
23,CC1Oc2cc3oc4c(O)c(O)ccc4c(=O)c3c(O)c2C1(C)C (stereo unspecified),14400 nM

row,SMILES,EC50
1,O=C(COc1ccc(Cl)cc1)NC1CCSC1=O (stereo unspecified),> 16000 nM (inactive)
2,Cn1c(NN=O)nc2ccccc21,> 15000 nM (inactive)
3,COc1cccc(COc2cc3ccccc3nc2C)c1,1060 nM
4,Cc1ccc(/C=C2\SC(=S)N(/N=C/c3cc([N+](=O)[O-])ccc3O)C2=O)o1,3330 nM
5,CN1c2ccccc2N(C)C1(C)c1ccccc1,> 15000 nM (inactive)
6,CCOc1ccc2nc(N3C(=O)/C(=C/c4ccccc4)NC3=S)sc2c1,1410 nM
7,CC1=CC2=C(OC1N(C)C)c1cccc3cccc(c13)C2=O (stereo unspecified),9240 nM
8,Cc1nc(-n2[nH]c3c(c2=O)CCCC3)[nH]c(=O)c1Cc1ccccc1,541 nM
9,Cc1ccc(Nc2nc(N)c([N+](=O)[O-])c(N3CCC(C)CC3)n2)cc1C,3640 nM
10,CCC(=O)N1c2ccc(S(=O)(=O)CCC(=O)N3CCn4c3nc3ccccc34)cc2CC1C (stereo unspecified),1120 nM
11,CCOC(=O)Cc1csc(NC(=O)CSc2nnc(-c3ccncc3)o2)n1,< 120 nM
12,O=C(NNC(=O)c1cc2ccccc2cc1O)Nc1ccccc1F,> 16000 nM (inactive)
13,COc1ccc(/C=C/C(=O)N(c2ccccn2)C2CCCCC2)cc1OC,7990 nM
14,Cc1cccc(C2c3[nH]c4ccccc4c3CCN2C(=O)c2cc(-c3cccn3C)n[nH]2)n1 (stereo unspecified),1050 nM
15,CCOc1ccc2c(c1)C(C)=CC(C)(C)N2S(=O)(=O)c1ccc(C)cc1,> 16000 nM (inactive)
16,CC(=O)Oc1ccc2c(=O)c(-c3nc4ccccc4s3)coc2c1,3520 nM
17,CN1CCc2cc3c(c4c2C1Cc1ccccc1-4)OCO3 (stereo unspecified),> 15000 nM (inactive)
18,COc1ccc(C2C(C(=O)c3cccs3)=C(O)C(=O)N2c2nncs2)cc1 (stereo unspecified),15200 nM
19,COc1ccc(-c2nnc(Nc3nc4c(OC)cccc4s3)o2)c(OC)c1,2710 nM
